Experimental data: patent US20100048462A1, “TRUNCATED PTH PEPTIDES WITH A CYCLIC CONFORMATION” (Zealand Pharma A/S, priority 2006, published 2010)
Bridge positions count the residues as written; N and C are the ends. Square brackets hold non-standard residues; d marks the D form. Peptide text beside a SMILES is read from it. hArg = N=C(N)NCCCC[C@H](N)C(=O)O; Ac6c = NC1(C(=O)O)CCCCC1; Ac5c = NC1(C(=O)O)CCCC1; Nva = CCC[C@H](N)C(=O)O; Abu = CC[C@H](N)C(=O)O; Aib = CC(C)(N)C(=O)O

Target: T1, Saos-2 PTH1R (Homo sapiens, UniProt Q03431)
T1 construct: endogenous in cells; host or cells: Saos-2
T1 sequence (Q03431 27-593): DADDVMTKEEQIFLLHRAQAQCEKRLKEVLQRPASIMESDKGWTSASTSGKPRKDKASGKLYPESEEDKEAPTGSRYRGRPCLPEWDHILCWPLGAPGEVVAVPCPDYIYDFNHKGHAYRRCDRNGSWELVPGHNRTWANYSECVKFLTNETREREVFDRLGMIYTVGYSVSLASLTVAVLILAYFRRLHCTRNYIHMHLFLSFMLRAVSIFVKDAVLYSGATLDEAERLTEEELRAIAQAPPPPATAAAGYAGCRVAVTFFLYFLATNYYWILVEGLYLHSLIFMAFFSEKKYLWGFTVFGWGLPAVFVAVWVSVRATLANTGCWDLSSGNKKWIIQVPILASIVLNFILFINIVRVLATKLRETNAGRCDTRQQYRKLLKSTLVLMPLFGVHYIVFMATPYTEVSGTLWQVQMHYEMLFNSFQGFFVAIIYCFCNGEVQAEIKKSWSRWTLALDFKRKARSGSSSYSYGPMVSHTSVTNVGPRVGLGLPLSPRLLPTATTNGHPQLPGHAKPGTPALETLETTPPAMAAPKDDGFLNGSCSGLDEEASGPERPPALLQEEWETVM
Assay: cAMP-efficacy assay in Saos-2 cells
Assay type: cell-based
Conditions: for EC50: cAMP, 100 μM IBMX, 37° C. 15 min, suffix of label = salt tested; for Emax ± SEM: relative effect to the control (SEQ ID NO: 32)
Procedure: Peptides were dissolved in phosphate buffered saline and further diluted in Tyrode's buffer (TB, Sigma-Aldrich) containing 0.1% BSA and 100 μM isobutyl-methyl-xanthine (IBMX, Sigma-Aldrich). Saos-2 cells were seeded at 50,000 cells/well in 96-microtiter plates and grown for two days before the efficacy assays. On the day of analysis, the growth medium was carefully removed by suction. Cells were washed once with 200 μl TB/0.1% BSA. The buffer was replaced with 100 μl reaction mixture (±test peptide), and incubated at 37° C. for 15 min. The reaction was stopped by addition of 25 μl of ice-cold 0.5 M HCl. Cells were in the following incubated on ice for 60 min. 75 μl acetate-buffer, pH6.2, was added to each well of a 96-well cAMP FlashPlate (Perkin-Elmer). […] FlashPlates were incubated overnight at 4° C., emptied by suction and counted in a TopCounter (Packard).
Determinations were performed in single determinations or triplicates at all doses. […] Standards were included as single determinations, duplicates or triplicates in each experiment, preferentially on each plate.
Concentration-dependent cAMP responses were imported into GraphPad Prism vers. 4 (GraphPad Software), transformed and plotted. […] Thus, a four-parameter logistic equation was used for determination of the EC50 values. Curves were fitted with a function for sigmoidal dose response curve (variable slope) non-linear fit Y=Bottom+(Top-Bottom)/(1+10̂((LogEC50−X)*HillSlope)) where X is the logarithm of concentration and Y is the response. Y starts at Bottom and goes to Top with a sigmoid shape. pEC50, Hill-coefficient and the maximally inducible concentration of cAMP (Emax) were evaluated.
Overall statistical differences were analyzed with Statistica (Statsoft) using one-way ANOVA. Post-hoc comparisons were made by the use of Fisher's Least Significance Test. Results were considered significant, when p was lower than 0.05.

CC[C@H](C)[C@H](NC(=O)[C@H](CCC(=O)O)NC(=O)C(C)(C)NC(=O)[C@@H](NC(=O)C1(N)CCCC1)C(C)C)C(=O)N[C@@H](CCC(N)=O)C(=O)N[C@@H](CC(C)C)C(=O)N[C@@H](CCSC)C(=O)N[C@@H](Cc1c[nH]cn1)C(=O)N[C@@H](CC(N)=O)C(=O)N[C@@H](CC(C)C)C(=O)NCC(=O)N[C@@H](CCCCN)C(=O)N[C@@H](Cc1c[nH]cn1)C(=O)N[C@@H](CC(C)C)C(=O)N[C@@H](CC(N)=O)C(=O)N[C@@H](CO)C(N)=O [SEQ ID NO: 35] (H-[Ac5c]V[Aib]EIQLMHNLGKHLNS-NH2)
EC50: 8130 nM
Emax ± SEM: 1.20 ± 0.01

CC[C@H](C)[C@H](NC(=O)[C@H](CCC(=O)O)NC(=O)C(C)(C)NC(=O)[C@@H](NC(=O)C1(N)CCCC1)C(C)C)C(=O)N[C@@H](CCC(N)=O)C(=O)N[C@@H](CC(C)C)C(=O)N[C@@H](CC(C)C)C(=O)N[C@@H](Cc1c[nH]cn1)C(=O)N[C@@H](CCC(N)=O)C(=O)N[C@@H](CCCCNC(=N)N)C(=O)N[C@@H](C)C(=O)N[C@H]1CCCCNC(=O)C[C@@H](C(N)=O)NC(=O)[C@H](CC(=O)O)NC(=O)[C@H](CC(C)C)NC(=O)[C@H](Cc2c[nH]c3ccccc23)NC1=O [SEQ ID NO: 22, H-Ac5c-Val-Aib-Glu-Ile-Gln-Leu-Leu-His-Gln-Har-Ala-Lys( )-Trp-Leu-Asp-Asp( )-NH2] (H-[Ac5c]V[Aib]EIQLLHQ[hArg]AKWLDD-NH2; lactam 13-17)
EC50: 74.1 nM
Emax ± SEM: 1.08 ± 0.04

CC[C@H](C)[C@H](NC(=O)[C@H](CCC(=O)O)NC(=O)C1(NC(=O)[C@@H](NC(=O)C2(N)CCCC2)C(C)C)CCCC1)C(=O)N[C@@H](CCC(N)=O)C(=O)N[C@@H](CC(C)C)C(=O)N[C@@H](CC(C)C)C(=O)N[C@@H](Cc1c[nH]cn1)C(=O)N[C@@H](CCC(N)=O)C(=O)N[C@@H](CCCCNC(=N)N)C(=O)N[C@@H](C)C(=O)N[C@H]1CCCCNC(=O)C[C@@H](C(N)=O)NC(=O)[C@H](CC(N)=O)NC(=O)[C@H](CC(C)C)NC(=O)[C@H](Cc2c[nH]c3ccccc23)NC1=O [SEQ ID NO: 14, H-Ac5c-Val-Ac5c-Glu-Ile-Gln-Leu-Leu-His-Gln-Har-Ala-Lys( )-Trp-Leu-Asn-Asp( )-NH2] (H-[Ac5c]V[Ac5c]EIQLLHQ[hArg]AKWLND-NH2; lactam 13-17)
EC50: 35.5 nM
Emax ± SEM: 1.03 ± 0.05

CCC[C@H](NC(=O)[C@@H](NC(=O)C1(N)CCCC1)C(C)C)C(=O)N[C@@H](CCC(=O)O)C(=O)N[C@H](C(=O)N[C@@H](CCC(N)=O)C(=O)N[C@@H](CC(C)C)C(=O)N[C@@H](CC(C)C)C(=O)N[C@@H](Cc1c[nH]cn1)C(=O)N[C@@H](CCC(N)=O)C(=O)N[C@@H](CCCCNC(=N)N)C(=O)N[C@@H](C)C(=O)N[C@H]1CCCCNC(=O)C[C@@H](C(N)=O)NC(=O)[C@H](CC(N)=O)NC(=O)[C@H](CC(C)C)NC(=O)[C@H](Cc2c[nH]c3ccccc23)NC1=O)[C@@H](C)CC [SEQ ID NO: 16, H-Ac5c-Val-Nva-Glu-Ile-Gln-Leu-Leu-His-Gln-Har-Ala-Lys( )-Trp-Leu-Asn-Asp( )-NH2] (H-[Ac5c]V[Nva]EIQLLHQ[hArg]AKWLND-NH2; lactam 13-17)
EC50: 120 nM
Emax ± SEM: 1.03 ± 0.04

CC[C@H](C)[C@H](NC(=O)[C@H](CCC(=O)O)NC(=O)C(C)(C)NC(=O)[C@@H](NC(=O)C1(N)CCCC1)C(C)C)C(=O)N[C@@H](CCC(N)=O)C(=O)N[C@@H](CC(C)C)C(=O)N[C@@H](CCSC)C(=O)N[C@@H](Cc1c[nH]cn1)C(=O)N[C@@H](CCC(N)=O)C(=O)N[C@@H](CCCCNC(=N)N)C(=O)N[C@@H](C)C(=O)N[C@H]1CCCCNC(=O)C[C@@H](C(N)=O)NC(=O)[C@H](CC(N)=O)NC(=O)[C@H](CC(C)C)NC(=O)[C@H](Cc2ccccc2)NC1=O [SEQ ID NO: 26, H-Ac5c-Val-Aib-Glu-Ile-Gln-Leu-Met-His-Gln-Har-Ala-Lys( )-Phe-Leu-Asn-Asp( )-NH2] (H-[Ac5c]V[Aib]EIQLMHQ[hArg]AKFLND-NH2; lactam 13-17)
EC50: 12.6 nM
Emax ± SEM: 1.08 ± 0.09

CC[C@H](C)[C@H](NC(=O)[C@H](CCC(=O)O)NC(=O)C(C)(C)NC(=O)[C@@H](NC(=O)C1(N)CCCC1)C(C)C)C(=O)N[C@@H](CCC(=O)O)C(=O)N[C@@H](CC(C)C)C(=O)N[C@@H](CC(C)C)C(=O)N[C@@H](Cc1c[nH]cn1)C(=O)N[C@@H](CCC(N)=O)C(=O)N[C@@H](CCCCNC(=N)N)C(=O)N[C@@H](C)C(=O)N[C@H]1CCCCNC(=O)C[C@@H](C(N)=O)NC(=O)[C@H](CC(N)=O)NC(=O)[C@H](CC(C)C)NC(=O)[C@H](Cc2c[nH]c3ccccc23)NC1=O [SEQ ID NO: 29, H-Ac5c-Val-Aib-Glu-Ile-Glu-Leu-Leu-His-Gln-Har-Ala-Lys( )-Trp-Leu-Asn-Asp( )-NH2] (H-[Ac5c]V[Aib]EIELLHQ[hArg]AKWLND-NH2; lactam 13-17)
EC50: 112 nM
Emax ± SEM: 1.27 ± 0.20

CC[C@H](C)[C@H](NC(=O)[C@H](CCC(=O)O)NC(=O)C(C)(C)NC(=O)[C@@H](NC(=O)C1(N)CCCC1)C(C)C)C(=O)N[C@@H](CCC(N)=O)C(=O)N[C@@H](CC(C)C)C(=O)N[C@@H](CCSC)C(=O)N[C@@H](Cc1c[nH]cn1)C(=O)N[C@@H](CCC(N)=O)C(=O)N[C@@H](CCCCNC(=N)N)C(=O)N[C@@H](C)C(=O)N[C@H]1CCCCNC(=O)C[C@@H](C(N)=O)NC(=O)[C@H](CC(=O)O)NC(=O)[C@H](CC(C)C)NC(=O)[C@H](Cc2c[nH]c3ccccc23)NC1=O [SEQ ID NO: 23, H-Ac5c-Val-Aib-Glu-Ile-Gln-Leu-Met-His-Gln-Har-Ala-Lys( )-Trp-Leu-Asp-Asp( )-NH2] (H-[Ac5c]V[Aib]EIQLMHQ[hArg]AKWLDD-NH2; lactam 13-17)
EC50: 33.1 nM
Emax ± SEM: 1.16 ± 0.08

CC[C@H](C)[C@H](NC(=O)[C@H](CCC(=O)O)NC(=O)C(C)(C)NC(=O)[C@@H](NC(=O)C1(N)CCCCC1)C(C)C)C(=O)N[C@@H](CCC(N)=O)C(=O)N[C@@H](CC(C)C)C(=O)N[C@@H](CC(C)C)C(=O)N[C@@H](Cc1c[nH]cn1)C(=O)N[C@@H](CCC(N)=O)C(=O)N[C@@H](CCCCNC(=N)N)C(=O)N[C@@H](C)C(=O)N[C@H]1CCCCNC(=O)C[C@@H](C(N)=O)NC(=O)[C@H](CC(N)=O)NC(=O)[C@H](CC(C)C)NC(=O)[C@H](Cc2c[nH]c3ccccc23)NC1=O [SEQ ID NO: 10, H-Ac6c-Val-Aib-Glu-Ile-Gln-Leu-Leu-His-Gln-Har-Ala-Lys( )-Trp-Leu-Asn-Asp( )-NH2] (H-[Ac6c]V[Aib]EIQLLHQ[hArg]AKWLND-NH2; lactam 13-17)
EC50: 12.6 nM
Emax ± SEM: 1.08 ± 0.06

CC[C@H](N)C(=O)N[C@H](C(=O)NC(C)(C)C(=O)N[C@@H](CCC(=O)O)C(=O)N[C@H](C(=O)N[C@@H](CCC(N)=O)C(=O)N[C@@H](CC(C)C)C(=O)N[C@@H](CC(C)C)C(=O)N[C@@H](Cc1c[nH]cn1)C(=O)N[C@@H](CCC(N)=O)C(=O)N[C@@H](CCCCNC(=N)N)C(=O)N[C@@H](C)C(=O)N[C@H]1CCCCNC(=O)C[C@@H](C(N)=O)NC(=O)[C@H](CC(N)=O)NC(=O)[C@H](CC(C)C)NC(=O)[C@H](Cc2c[nH]c3ccccc23)NC1=O)[C@@H](C)CC)C(C)C [SEQ ID NO: 11, H-Abu-Val-Aib-Glu-Ile-Gln-Leu-Leu-His-Gln-Har-Ala-Lys( )-Trp-Leu-Asn-Asp( )-NH2] (H-[Abu]V[Aib]EIQLLHQ[hArg]AKWLND-NH2; lactam 13-17)
EC50: 67.6 nM
Emax ± SEM: 1.04 ± 0.05
